Measured values taken from patent US5096898A, “Bile acid unsaturated derivatives and pharmaceutical compositions containing them” (Giuliani S.p.A., priority 1990, dated 1992).
≈ marks a conversion by molar mass, not a printed value. Entries after “also recorded” stand apart in the source; their conditions may differ. Where two headings read alike, the source gives them in different places.

Columns and labels:
[1] = Physico-chemical characteristics (Table 1); format: physicochemical; set-up: Critical micellar concentration (CMC): unit not given here; conditions: for chromatographic logP: c18 hplc
[2] = Effect on bile flow and bile lipid secretion; format: in vivo, rat; conditions: for SMAB (maximum secretion) / SMPL (maximum bile lipid secretion) / SMVo = maximum bile flow / SMXOL (maximum bile lipid secretion): intravenous, 6 μmoles/min/kg during 1 hour (stated for TOL-UDCA)
Experimental: (§1) Trans 3α,7β-dihydroxy-5β-24-cholen-27-oic acid (TOL-UDCA) was studied compared with ursodeoxycholic acid and the glycine and taurine conjugated thereof also in the following pharmacological tests:
effects on the secretion of bile, bile acids, cholesterol and phospholipids.
(§2) TOL-UDCA was administered to rat by intravenous and intraduodenal routes at a dose of 6 μmoles/min/kg during 1 hour.
SMVo = maximum bile flow
SM = maximum bile lipid secretion

[3] = Hepatic absorption, metabolism and biliary secretion, intravenous; format: in vivo; conditions: rat
Experimental: as §1
hepatic and intestinal metabolism (in vivo and in vitro)
hepatic and intestinal absorption
as §2

[4] = read-out: Retention times with C18-HPLC (K') (converted)

Row | SMILES | Critical micellar concentration (CMC) [1] | chromatographic logP [1, 4] | solubility ([1]; read-out: Solubility) | pKa ([1]; read-out: pKa) | SMAB (maximum secretion) [2] | SMPL (maximum bile lipid secretion) [2] | SMVo = maximum bile flow [2] | SMXOL (maximum bile lipid secretion) [2] | pKa [1] | solubility [1] | chromatographic logP [1] | kinetic of recovery in the bile ([3]; intravenous, 6 μmoles/min/kg during 1 hour) | accumulation in the hepatic cells ([3]; in vivo) | disappearance from the bile ([3]; in vivo) | presence in bile 2 hours after end of infusion ([3]; in vivo) | bile flow / choleretic effect (in words) ([2]; compared with UDCA natural analogs and conjugated forms)
1 | C[C@H](CCC(=O)O)[C@H]1CC[C@H]2[C@@H]3[C@@H](O)C[C@@H]4C[C@H](O)CC[C@]4(C)[C@H]3CC[C@]12C [UDCA, ursodeoxycholic acid] | 19 | 0.563 | 9 µM (≈ 3.53 µg/mL) | 5.06 | 3,02 μmol/min/kg | 0,22 μmol/min/kg | 3.6 mL/h/kg | 0,022 μmol/min/kg | – | – | – | – | – | – | – | –
2 | C[C@H](CC/C=C/CC(=O)O)[C@H]1CC[C@H]2[C@@H]3[C@@H](O)C[C@@H]4C[C@H](O)CC[C@]4(C)[C@H]3CC[C@]12C [TOL-UDCA, Trans-3α,7β-dihydroxy-5β-24-cholen-27-oic acid] | 5 | – | – | – | 1,02 μmol/min/kg | 0,12 μmol/min/kg | 5.4 mL/h/kg | 0,020 μmol/min/kg | 5.02 | 10 µM (≈ 4.33 µg/mL) | 0.96 | recovered in the bile with a slow kinetic | accumulates in the hepatic cells | disappears from the bile with a slow kinetic | a noticeable amount of this bile acid is still present 2 hours after | increases bile flow and this effect is stronger than the one of UDCA natural analogs and of the conjugated forms thereof; also recorded: strong choleretic effect after intravenous or intraduodenal administrations, which effect is higher than that of UDCA
3 | C[C@H](CCC(=O)NCCS(=O)(=O)O)[C@H]1CC[C@H]2[C@@H]3[C@@H](O)C[C@@H]4C[C@H](O)CC[C@]4(C)[C@H]3CC[C@]12C [T-UDCA] | 8 | -0.00877 | – | 2 | 2,40 μmol/min/kg | 0,18 μmol/min/kg | 2.1 mL/h/kg | 0,014 μmol/min/kg | – | – | – | – | – | – | – | –
4 | C[C@H](CCC(=O)NCC(=O)O)[C@H]1CC[C@H]2[C@@H]3[C@@H](O)C[C@@H]4C[C@H](O)CC[C@]4(C)[C@H]3CC[C@]12C [G-UDCA] | 12 | 0.0253 | – | – | 2,10 μmol/min/kg | 0,39 μmol/min/kg | 2.4 mL/h/kg | 0,028 μmol/min/kg | 3.9 | 3 µM (≈ 1.35 µg/mL) | – | – | – | – | – | –
